Measured values: patent US9662327B2 (AGIOS PHARMACEUTICALS, INC, priority 2011, dated 2017)

What was measured:
[1] = test system: U87R132H (U87MG) cells; experiment: Cellular assay for IDH1m inhibitors: inhibition of 2-HG production in U87MG (U87R132H) cells (LC-MS); type: cell-based; conditions: Homo sapiens, U-87 MG, 48 hours
Description: (§1) Cells (e.g., HT1080 or U87MG) are grown in T125 flasks in DMEM containing 10% FBS, 1× penicillin/streptomycin and 500 ug/mL G418. They are harvested by trypsin and seeded into 96 well white bottom plates at a density of 5000 cell/well in 100 ul/well in DMEM with 10% FBS. No cells are plates in columns 1 and 12. Cells are incubated overnight at 37 C in 5% CO2. The next day compounds are made up at 2× concentration and 100 ul are added to each cell well. The final concentration of DMSO is 0.2% and the DMSO control wells are plated in row G. The plates are then placed in the incubator for 48 hours. At 48 hours, 100 ul of media is removed from each well and analyzed by LC-MS for 2-HG concentrations. The cell plate is placed back in the incubator for another 24 hours. At 72 hours post compound addition, 10 mL/plate of Promega Cell Titer Glo reagent is thawed and mixed. The cell plate is removed from the incubator and allowed to equilibrate to room temperature. Then 100 ul of reagent is added to each well of media. The cell plate is then placed on an orbital shaker for 10 minutes and then allowed to sit at room temperature for 20 minutes. The plate is then read for luminescence with an integration time of 500 ms.

[2] = test system: HT1080 cells; experiment: Cellular assay for IDH1m inhibitors: inhibition of 2-HG production in HT1080 cells (LC-MS); type: cell-based; conditions: Homo sapiens, HT-1080, 48 hours
Description: as §1

[3] = target: IDH1 R132H (Homo sapiens (Human), UniProt O75874, R132H); experiment: Assays for IDH1 R132H Inhibitors (NADPH/aKG, resazurin detection); type: biochemical; conditions: IDH1 R132H enzyme, Table 3; read-out: R132H IC50
Sequence of IDH1 R132H (O75874 whole entry R132H): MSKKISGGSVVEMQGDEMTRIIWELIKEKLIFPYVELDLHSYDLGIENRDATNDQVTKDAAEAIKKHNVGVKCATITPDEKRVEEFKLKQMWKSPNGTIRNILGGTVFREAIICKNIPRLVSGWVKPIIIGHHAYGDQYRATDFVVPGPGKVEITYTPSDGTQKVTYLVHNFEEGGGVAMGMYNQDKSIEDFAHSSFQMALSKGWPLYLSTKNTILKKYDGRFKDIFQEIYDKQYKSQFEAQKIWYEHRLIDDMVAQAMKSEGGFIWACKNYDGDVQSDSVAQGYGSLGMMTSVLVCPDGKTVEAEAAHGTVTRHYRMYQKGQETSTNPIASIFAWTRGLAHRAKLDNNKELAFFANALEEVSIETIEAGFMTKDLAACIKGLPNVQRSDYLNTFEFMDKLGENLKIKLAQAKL
Method in brief: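 Substrate mix held 8 uM NADPH plus 2 mM aKG; buffer was 20 mM Tris pH 7.5 with 150 mM NaCl, 10 mM MgCl2, 0.03% BSA. After 50 min room-temperature reaction, NADPH remaining was detected with 30 μM resazurin mix over 5 min.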

Row | SMILES | IC50 [1] | IC50 [2] | IC50 [3]
1 | CC(C)[C@@H]1CN(c2nc(C3CC3)c3c(c2C#N)CC(C)(C)OC3)CCN1C(=O)CCC(=O)OCCO [Compound 458, (R)-2-hydroxyethyl 4-(4-(5-cyano-8-cyclopropyl-3,3-dimethyl-3,4-dihydro-1H-pyrano[3,4-c]pyridin-6-yl)-2-isopropylpiperazin-1-yl)-4-oxobutanoate] | < 500 nM | 500 to 1000 nM | –
2 | CC1(C)Cc2c(C#N)c(N3CCN(C(=O)CC4COC4)[C@H](C4CC4)C3)nc(C3CC3)c2CO1 [Compound 466, (R)-8-cyclopropyl-6-(3-cyclopropyl-4-(2-(oxetan-3-yl)acetyl)piperazin-1-yl)-3,3-dimethyl-3,4-dihydro-1H-pyrano[3,4-c]pyridine-5-carbonitrile] | – | – | 500 to 1000 nM
3 | CCCCNC(=O)C(=O)CCC(=O)N1CCN(c2nc(C3CC3)c3c(c2C#N)CC(C)(C)OC3)C[C@H]1C(C)C [Compound 467, (R)—N-butyl-5-(4-(5-cyano-8-cyclopropyl-3,3-dimethyl-3,4-dihydro-1H-pyrano[3,4-c]pyridin-6-yl)-2-isopropylpiperazin-1-yl)-2,5-dioxopentanamide] | – | – | 500 to 1000 nM
4 | CCOC(=O)[C@@H]1CN(c2nc(C3CC3)c3c(c2C#N)CC(C)(C)OC3)CCN1C(C)=O [Compound 468, (S)-ethyl 1-acetyl-4-(5-cyano-8-cyclopropyl-3,3-dimethyl-3,4-dihydro-1H-pyrano[3,4-c]pyridin-6-yl)piperazine-2-carboxylate] | – | – | 500 to 1000 nM
5 | CC1(C)Cc2c(C#N)c(N3CCN(C(=O)CC(F)(F)F)C(CC(F)(F)F)C3)nc(C3CC3)c2CO1 (stereo not drawn) [Compound 470, 8-cyclopropyl-3,3-dimethyl-6-(3-(2,2,2-trifluoroethyl)-4-(3,3,3-trifluoropropanoyl)piperazin-1-yl)-3,4-dihydro-1H-pyrano[3,4-c]pyridine-5-carbonitrile] | – | – | 500 to 1000 nM
6 | CC1(C)Cc2c(C#N)c(N3CCN(C(=O)C4CC4)C(CC(F)(F)F)C3)nc(C3CC3)c2CO1 (stereo not drawn) [Compound 471, 6-(4-(cyclopropanecarbonyl)-3-(2,2,2-trifluoroethyl)piperazin-1-yl)-8-cyclopropyl-3,3-dimethyl-3,4-dihydro-1H-pyrano[3,4-c]pyridine-5-carbonitrile] | – | – | 500 to 1000 nM
7 | COC(=O)OC[C@@H]1C[C@H]1C(=O)N1CCN(c2nc(C3CC3)c3c(c2C#N)CC(C)(C)OC3)C[C@H]1C(C)C [Compound 472, ((1R,2R)-2-((R)-4-(5-cyano-8-cyclopropyl-3,3-dimethyl-3,4-dihydro-1H-pyrano[3,4-c]pyridin-6-yl)-2-isopropylpiperazine-1-carbonyl)cyclopropyl)methyl methyl carbonate] | – | – | < 500 nM
8 | CC1CN(c2nc(C3CC3)c3c(c2C#N)CC(C)(C)OC3)CC(F)CN1C(=O)C1CC1 (stereo not drawn) [Compound 474, 6-(4-(cyclopropanecarbonyl)-6-fluoro-3-methyl-1,4-diazepan-1-yl)-8-cyclopropyl-3,3-dimethyl-3,4-dihydro-1H-pyrano[3,4-c]pyridine-5-carbonitrile] | – | – | 500 to 1000 nM
9 | CC1CCN(c2nc(C3CC3)c3c(c2C#N)CC(C)(C)OC3)CCN1C(=O)C1CC1 (stereo not drawn) [Compound 475, 6-(4-(cyclopropanecarbonyl)-5-methyl-1,4-diazepan-1-yl)-8-cyclopropyl-3,3-dimethyl-3,4-dihydro-1H-pyrano[3,4-c]pyridine-5-carbonitrile] | – | – | 500 to 1000 nM
10 | COCCC(=O)N1CCN(c2nc(C3CC3)c3c(c2C#N)CCN(C(C)=O)C3)C[C@H]1C1CC1 [Compound 478, (R)-7-acetyl-1-cyclopropyl-3-(3-cyclopropyl-4-(3-methoxypropanoyl)piperazin-1-yl)-5,6,7,8-tetrahydro-2,7-naphthyridine-4-carbonitrile] | – | – | < 500 nM
11 | CC(=O)N1CCc2c(C#N)c(N3CCN(C(=O)C4CC4)[C@H](C4CC4)C3)nc(C3CC3)c2C1 [Compound 480, (R)-7-acetyl-3-(4-(cyclopropanecarbonyl)-3-cyclopropylpiperazin-1-yl)-1-cyclopropyl-5,6,7,8-tetrahydro-2,7-naphthyridine-4-carbonitrile] | – | – | 500 to 1000 nM
12 | C=CC(=O)N1CCc2c(C3CC3)nc(N3CCN(C(=O)C4CC4)[C@H](C4CC4)C3)c(C#N)c2C1 [Compound 482, (R)-6-acryloyl-3-(4-(cyclopropanecarbonyl)-3-cyclopropylpiperazin-1-yl)-1-cyclopropyl-5,6,7,8-tetrahydro-2,6-naphthyridine-4-carbonitrile] | < 500 nM | < 500 nM | –

Further lines, results first:

Row | IC50 [1] | IC50 [2] | IC50 [3] | SMILES
13 | – | – | 500 to 1000 nM | COCCC(=O)N1CCN(c2nc(C3CC3)c3c(c2C#N)CCN(CCO)C3)C[C@H]1C1CC1 [Compound 484, (R)-1-cyclopropyl-3-(3-cyclopropyl-4-(3-methoxypropanoyl)piperazin-1-yl)-7-(2-hydroxyethyl)-5,6,7,8-tetrahydro-2,7-naphthyridine-4-carbonitrile]
14 | 1000 to 10000 nM | 1000 to 10000 nM | – | COCCC(=O)N1CCN(c2nc(C3CC3)c3c(c2C#N)CN(S(C)(=O)=O)CC3)C[C@H]1C1CC1 [Compound 487, (R)-1-cyclopropyl-3-(3-cyclopropyl-4-(3-methoxypropanoyl)piperazin-1-yl)-6-(methylsulfonyl)-5,6,7,8-tetrahydro-2,6-naphthyridine-4-carbonitrile]
15 | – | 500 to 1000 nM | < 500 nM | C=CC(=O)N1CCc2c(C#N)c(N3CCN(C(=O)C4CC4)[C@H](C4CC4)C3)nc(C3CC3)c2C1 [Compound 489, (R)-7-acryloyl-3-(4-(cyclopropanecarbonyl)-3-cyclopropylpiperazin-1-yl)-1-cyclopropyl-5,6,7,8-tetrahydro-2,7-naphthyridine-4-carbonitrile]
16 | – | 500 to 1000 nM | < 500 nM | C=CC(=O)N1CCc2c(C#N)c(N3CCN(C(=O)CC(F)(F)F)[C@H](C4CC4)C3)nc(C3CC3)c2C1 [Compound 490, (R)-7-acryloyl-1-cyclopropyl-3-(3-cyclopropyl-4-(3,3,3-trifluoropropanoyl)piperazin-1-yl)-5,6,7,8-tetrahydro-2,7-naphthyridine-4-carbonitrile]
17 | – | < 500 nM | < 500 nM | C#CC(=O)N1CCc2c(C#N)c(N3CCN(C(=O)C4CC4)[C@H](C4CC4)C3)nc(C3CC3)c2C1 [Compound 491, (R)-3-(4-(cyclopropanecarbonyl)-3-cyclopropylpiperazin-1-yl)-1-cyclopropyl-7-propioloyl-5,6,7,8-tetrahydro-2,7-naphthyridine-4-carbonitrile]
18 | – | 1000 to 10000 nM | 500 to 1000 nM | C=C(F)C(=O)N1CCc2c(C3CC3)nc(N3CCN(C(=O)CCOC)[C@H](C4CC4)C3)c(C#N)c2C1 [Compound 492]
19 | – | < 500 nM | 500 to 1000 nM | C#CC(=O)N1CCc2c(C#N)c(-c3ccc(C(=O)OC)cc3F)nc(C3CC3)c2C1 [Compound 495]
20 | – | 1000 to 10000 nM | 500 to 1000 nM | N#CCC(=O)N1CCc2c(C#N)c(N3CCN(C(=O)C4CC4)[C@H](C4CC4)C3)nc(C3CC3)c2C1 [Compound 497, (R)-7-(2-cyanoacetyl)-3-(4-(cyclopropanecarbonyl)-3-cyclopropylpiperazin-1-yl)-1-cyclopropyl-5,6,7,8-tetrahydro-2,7-naphthyridine-4-carbonitrile]
21 | – | – | 500 to 1000 nM | C/C=C/C(=O)N1CCc2c(C#N)c(N3CCN(C(=O)C4CC4)[C@H](C4CC4)C3)nc(C3CC3)c2C1 [Compound 499, (R,E)-7-but-2-enoyl-3-(4-(cyclopropanecarbonyl)-3-cyclopropylpiperazin-1-yl)-1-cyclopropyl-5,6,7,8-tetrahydro-2,7-naphthyridine-4-carbonitrile]
22 | – | 500 to 1000 nM | 500 to 1000 nM | C#CC(=O)N1CCc2c(C#N)c(N3CCN(C(=O)CCO)[C@H](C4CC4)C3)nc(C3CC3)c2C1 [Compound 500, (R)-1-cyclopropyl-3-(3-cyclopropyl-4-(3-hydroxypropanoyl)piperazin-1-yl)-7-propioloyl-5,6,7,8-tetrahydro-2,7-naphthyridine-4-carbonitrile]
23 | – | – | 500 to 1000 nM | COCCC(=O)N1CCN(c2nc(C3CC3)c3c(c2C#N)CCN(C(=O)CCO)C3)C[C@H]1C1CC1 [Compound 501, (R)-1-cyclopropyl-3-(3-cyclopropyl-4-(3-methoxypropanoyl)piperazin-1-yl)-′7-(3-hydroxypropanoyl)-5,6,7,8-tetrahydro-2,7-naphthyridine-4-carbonitrile]
24 | – | 500 to 1000 nM | 500 to 1000 nM | C=C(C)C(=O)N1CCc2c(C#N)c(N3CCN(C(=O)CCOC)[C@H](C4CC4)C3)nc(C3CC3)c2C1 [Compound 502, (R)-1-cyclopropyl-3-(3-cyclopropyl-4-(3-methoxypropanoyl)piperazin-1-yl)-7-methacryloyl-5,6,7,8-tetrahydro-2,7-naphthyridine-4-carbonitrile]
25 | – | – | 500 to 1000 nM | C=CS(=O)(=O)N1CCc2c(C#N)c(N3CCN(C)CC3)nc(C3CC3)c2C1 [Compound 503]
